# Laboratory results published in ChEMBL document CHEMBL1153814, “Synthesis of 3-deoxypentacyclic triterpene derivatives as inhibitors of glycogen phosphorylase” (J Nat Prod, 2009).
# Molecular target: T1, Glycogen phosphorylase, muscle form (Oryctolagus cuniculus, UniProt P00489)
# T1 sequence (P00489 whole entry): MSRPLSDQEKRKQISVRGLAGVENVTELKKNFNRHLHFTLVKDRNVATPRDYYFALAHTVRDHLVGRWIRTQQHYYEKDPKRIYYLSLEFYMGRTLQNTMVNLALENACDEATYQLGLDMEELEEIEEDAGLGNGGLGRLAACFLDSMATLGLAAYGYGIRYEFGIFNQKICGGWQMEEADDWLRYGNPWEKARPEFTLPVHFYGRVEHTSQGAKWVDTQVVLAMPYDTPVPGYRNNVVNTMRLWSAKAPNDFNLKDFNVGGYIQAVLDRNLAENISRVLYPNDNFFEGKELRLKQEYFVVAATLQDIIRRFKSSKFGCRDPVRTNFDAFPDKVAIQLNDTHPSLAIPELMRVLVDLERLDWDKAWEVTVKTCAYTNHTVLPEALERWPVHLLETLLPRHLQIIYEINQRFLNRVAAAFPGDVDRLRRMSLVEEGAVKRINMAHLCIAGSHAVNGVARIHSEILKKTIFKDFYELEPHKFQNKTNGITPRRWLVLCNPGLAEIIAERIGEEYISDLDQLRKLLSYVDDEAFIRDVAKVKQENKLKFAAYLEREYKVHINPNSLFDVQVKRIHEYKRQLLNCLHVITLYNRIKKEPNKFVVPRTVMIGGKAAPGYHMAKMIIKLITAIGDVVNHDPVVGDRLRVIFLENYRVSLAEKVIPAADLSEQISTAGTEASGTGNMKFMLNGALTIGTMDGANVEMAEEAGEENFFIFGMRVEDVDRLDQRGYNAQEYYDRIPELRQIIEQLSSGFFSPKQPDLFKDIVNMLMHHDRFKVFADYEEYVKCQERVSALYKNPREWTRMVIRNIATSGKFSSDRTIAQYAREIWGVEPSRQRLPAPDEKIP
# Assay: Inhibition of rabbit muscle glycogen phosphorylase assessed as release of phosphate from glucose-1-phosphate after 25 mins
# Conditions: not given; call rule not given here
row,Structure (SMILES),IC50
1,CC(=O)O[C@H]1CC(C)(C)[C@@H]2CC[C@]3(C)[C@H](CC=C4[C@@H]5CC(C)(C)CC[C@]5(C(=O)OCc5ccccc5)CC[C@]43C)[C@@]2(C)C1,Not Active
2,CC1(C)CC[C@]2(C(=O)O)CC[C@]3(C)C(=CC[C@@H]4[C@@]5(C)C[C@@H](OC(=O)CCC(=O)O)CC(C)(C)[C@@H]5CC[C@]43C)[C@@H]2C1,Not Active

# Same assay, conditions: read-out: IC50
row,Structure (SMILES),IC50
1,CC1CC[C@]2(C(=O)OCc3ccccc3)CC[C@]3(C)C(=CC[C@@H]4[C@@]5(C)C[C@H](O)CC(C)(C)[C@@H]5CC[C@]43C)[C@@H]2[C@H]1C (stereo partly specified),22.3 µM
2,CCOC(=O)[C@]12CCC(C)(C)C[C@H]1C1=CC[C@@H]3[C@@]4(C)C[C@H](O)CC(C)(C)[C@@H]4CC[C@@]3(C)[C@]1(C)CC2,15.3 µM
3,C[C@H]1[C@H](C)CC[C@]2(C(=O)O)CC[C@]3(C)C(=CC[C@@H]4[C@@]5(C)CC(=O)CC(C)(C)[C@@H]5CC[C@]43C)[C@H]12,28.9 µM
4,COC(=O)[C@]12CCC(C)(C)C[C@H]1C1=CC[C@@H]3[C@@]4(C)C[C@H](O)CC(C)(C)[C@@H]4CC[C@@]3(C)[C@]1(C)CC2,28.1 µM
5,CC1(C)CC[C@]2(C(=O)O)CC[C@]3(C)C(=CC[C@@H]4[C@@]5(C)C/C(=N\O)CC(C)(C)[C@@H]5CC[C@]43C)[C@@H]2C1,13.1 µM
6,CC1(C)CC[C@]2(C(=O)OCCCCBr)CC[C@]3(C)C(=CC[C@@H]4[C@@]5(C)C[C@H](O)CC(C)(C)[C@@H]5CC[C@]43C)[C@@H]2C1,48.7 µM
7,C[C@H]1[C@H](C)CC[C@]2(C(=O)OCc3ccccc3)CC[C@]3(C)C(=CC[C@@H]4[C@@]5(C)CC(=O)CC(C)(C)[C@@H]5CC[C@]43C)[C@H]12,24.2 µM
8,C[C@H]1[C@H](C)CC[C@]2(C(=O)O)CC[C@]3(C)C(=CC[C@@H]4[C@@]5(C)CC[C@H](O)C(C)(C)[C@@H]5CC[C@]43C)[C@H]12 [URSOLIC ACID],15.3 µM
9,C[C@@H]1[C@H]2C3=CC[C@@H]4[C@@]5(C)C[C@@H](O)CC(C)(C)[C@@H]5CC[C@@]4(C)[C@]3(C)CC[C@@]2(C(=O)OCc2ccccc2)CCC1(C)C,5.6 µM
10,CC1(C)CC[C@]2(C(=O)OCc3ccccc3)CC[C@]3(C)C(=CC[C@@H]4[C@@]5(C)CC(=O)CC(C)(C)[C@@H]5CC[C@]43C)[C@@H]2C1,3.2 µM
11,CCCC(=O)O[C@H]1CC(C)(C)[C@@H]2CC[C@]3(C)[C@H](CC=C4[C@@H]5CC(C)(C)CC[C@]5(C(=O)O)CC[C@]43C)[C@@]2(C)C1,75.6 µM
12,CC1(C)CC[C@]2(C(=O)O)CC[C@]3(C)C(=CC[C@@H]4[C@@]5(C)CC(=O)CC(C)(C)[C@@H]5CC[C@]43C)[C@@H]2C1,14.9 µM
13,CCC(=O)O[C@H]1CC(C)(C)[C@@H]2CC[C@]3(C)[C@H](CC=C4[C@@H]5CC(C)(C)CC[C@]5(C(=O)OCc5ccccc5)CC[C@]43C)[C@@]2(C)C1,121 µM
14,CC1(C)CC[C@]2(C(=O)OCc3ccccc3)CC[C@]3(C)C(=CC[C@@H]4[C@@]5(C)C[C@@H](OC(=O)CCC(=O)O)CC(C)(C)[C@@H]5CC[C@]43C)[C@@H]2C1,80.9 µM
15,CCCCOC(=O)[C@]12CCC(C)(C)C[C@H]1C1=CC[C@@H]3[C@@]4(C)C[C@H](O)CC(C)(C)[C@@H]4CC[C@@]3(C)[C@]1(C)CC2,13.8 µM
16,C[C@H]1[C@H](C)CC[C@]2(C(=O)O)CC[C@]3(C)C(=CC[C@@H]4[C@@]5(C)C[C@@H](O)CC(C)(C)[C@@H]5CC[C@]43C)[C@H]12,1.2 µM
17,CCCC(=O)O[C@H]1CC(C)(C)[C@@H]2CC[C@]3(C)[C@H](CC=C4[C@@H]5CC(C)(C)CC[C@]5(C(=O)OCc5ccccc5)CC[C@]43C)[C@@]2(C)C1,108 µM

row,Structure (SMILES),IC50
1,C[C@H]1[C@H](C)CC[C@]2(C(=O)O)CC[C@]3(C)C(=CC[C@@H]4[C@@]5(C)C/C(=N\O)CC(C)(C)[C@@H]5CC[C@]43C)[C@H]12,14.7 µM
2,CC1(C)CC[C@]2(C(=O)OCc3ccccc3)CC[C@]3(C)C(=CC[C@@H]4[C@@]5(C)C/C(=N\O)CC(C)(C)[C@@H]5CC[C@]43C)[C@@H]2C1,16.3 µM
3,CC1(C)CC[C@]2(C(=O)OCCCBr)CC[C@]3(C)C(=CC[C@@H]4[C@@]5(C)C[C@H](O)CC(C)(C)[C@@H]5CC[C@]43C)[C@@H]2C1,37.2 µM
4,CC1(C)CC[C@]2(C(=O)OCc3ccccc3)CC[C@]3(C)C(=CC[C@@H]4[C@@]5(C)C[C@@H](OC(=O)c6ccccc6)CC(C)(C)[C@@H]5CC[C@]43C)[C@@H]2C1,48.4 µM
5,CC1(C)CC[C@]2(C(=O)OCCBr)CC[C@]3(C)C(=CC[C@@H]4[C@@]5(C)C[C@H](O)CC(C)(C)[C@@H]5CC[C@]43C)[C@@H]2C1,25.4 µM
6,CCOC(=O)COC(=O)[C@]12CCC(C)(C)C[C@H]1C1=CC[C@@H]3[C@@]4(C)C[C@H](O)CC(C)(C)[C@@H]4CC[C@@]3(C)[C@]1(C)CC2,22.5 µM
7,C[C@H]1[C@H](C)CC[C@]2(C(=O)OCc3ccccc3)CC[C@]3(C)C(=CC[C@@H]4[C@@]5(C)C/C(=N\O)CC(C)(C)[C@@H]5CC[C@]43C)[C@H]12,20.2 µM
8,CC1(C)CC[C@]2(C(=O)O)CC[C@]3(C)C(=CC[C@@H]4[C@@]5(C)C[C@@H](O)CC(C)(C)[C@@H]5CC[C@]43C)[C@@H]2C1,8.5 µM
9,CC1(C)CC[C@]2(C(=O)O)CC[C@]3(C)C(=CC[C@@H]4[C@@]5(C)C[C@H](O)CC(C)(C)[C@@H]5CC[C@]43C)[C@@H]2C1,3.5 µM
10,CCC(=O)O[C@H]1CC(C)(C)[C@@H]2CC[C@]3(C)[C@H](CC=C4[C@@H]5CC(C)(C)CC[C@]5(C(=O)O)CC[C@]43C)[C@@]2(C)C1,80.2 µM
11,C=CCOC(=O)[C@]12CCC(C)(C)C[C@H]1C1=CC[C@@H]3[C@@]4(C)C[C@H](O)CC(C)(C)[C@@H]4CC[C@@]3(C)[C@]1(C)CC2,23.1 µM
12,CC1(C)CC[C@]2(C(=O)O)CC[C@]3(C)C(=CC[C@@H]4[C@@]5(C)C[C@@H](OC(=O)c6ccccc6)CC(C)(C)[C@@H]5CC[C@]43C)[C@@H]2C1,40.7 µM
13,CCCOC(=O)[C@]12CCC(C)(C)C[C@H]1C1=CC[C@@H]3[C@@]4(C)C[C@H](O)CC(C)(C)[C@@H]4CC[C@@]3(C)[C@]1(C)CC2,27.3 µM
14,C[C@H]1[C@H](C)CC[C@]2(C(=O)OCc3ccccc3)CC[C@]3(C)C(=CC[C@@H]4[C@@]5(C)C[C@@H](O)CC(C)(C)[C@@H]5CC[C@]43C)[C@H]12,55.8 µM
15,CC(=O)O[C@H]1CC(C)(C)[C@@H]2CC[C@]3(C)[C@H](CC=C4[C@@H]5CC(C)(C)CC[C@]5(C(=O)O)CC[C@]43C)[C@@]2(C)C1,42.4 µM
16,CC1(C)CC[C@]2(C(=O)OCc3ccccc3)CC[C@]3(C)C(=CC[C@@H]4[C@@]5(C)C[C@H](O)CC(C)(C)[C@@H]5CC[C@]43C)[C@@H]2C1,4.2 µM
17,C[C@@H]1[C@H]2C3=CC[C@@H]4[C@@]5(C)C[C@H](O)CC(C)(C)[C@@H]5CC[C@@]4(C)[C@]3(C)CC[C@@]2(C(=O)O)CC[C@@H]1C,5.5 µM
